Measurements published in PubChem BioAssay AID380.

Biological target: Adenylate kinase 4, mitochondrial (Homo sapiens) (UniProt P27144)
Test: ligand-induced stabilization of human AK3 (AK4) – biophysical, DSF, SYPRO orange (AID 380)
Details: recombinant protein, DSF SYPRO orange thermal shift; at 5 µM; protein 1 µM; buffer 10 mM HEPES; stronger effect = higher value

Adenylate kinase 4, mitochondrial (Homo sapiens), sequence (P27144 whole entry, looked up): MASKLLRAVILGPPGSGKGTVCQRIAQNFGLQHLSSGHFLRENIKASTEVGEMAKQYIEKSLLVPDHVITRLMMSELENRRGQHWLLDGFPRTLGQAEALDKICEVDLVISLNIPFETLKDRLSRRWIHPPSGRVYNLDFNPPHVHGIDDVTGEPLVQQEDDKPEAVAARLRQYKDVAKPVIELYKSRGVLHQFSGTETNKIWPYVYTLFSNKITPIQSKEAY

Nc1ncnc2c1ncn2[C@@H]1O[C@H](COP(=O)(O)OP(=O)(O)OP(=O)(O)OP(=O)(O)OP(=O)(O)OC[C@H]2O[C@@H](n3cnc4c(N)ncnc43)[C@H](O)[C@@H]2O)[C@@H](O)[C@H]1O
Tm shift: 17.2 Celsius
